Key:
[1] = test system: Human immunodeficiency virus 1; experiment: Selectivity ratio of EC50 for antiviral activity against HIV1 harboring E92Q mutation in catalytic core domain of integrase to EC50 for antiviral activity against wild-type HIV1 3B; type: functional
[2] = test system: Human immunodeficiency virus 1; experiment: Selectivity ratio of EC50 for antiviral activity against HIV1 harboring L74M and E92V mutation in catalytic core domain of integrase to EC50 for antiviral activity against wild-type HIV1 3B; type: functional
in vitro = conditions: human, MT4 cells
Description: Selectivity index, ratio of CC50 for human MT4 cells to EC50 for HIV1 3B in presence of 10% FBS

[3] = test system: Human immunodeficiency virus 1; experiment: Antiviral activity against 0.001 MOI HIV1 BAL infected in human T lymphocyte cells by p24 antigen ELISA in presence of 10% FBS, HSA and alpha1-AGP; type: functional, organism-based; conditions: Human immunodeficiency virus 1, BAL
[4] = Cytotoxicity against human MT4 cells infected with HIV1 3B by three fold dilution method in presence of 10% FBS; type: cell-based; conditions: MT4 cells infected with HIV-1 3B
[5] = test system: Human immunodeficiency virus 1; experiment: Selectivity ratio of EC50 for antiviral activity against EFV-resistant HIV1 selected after 7 passages to EC50 for antiviral activity against wild-type HIV1 3B; type: functional
[6] = test system: Human immunodeficiency virus 1; experiment: Selectivity ratio of EC50 for antiviral activity against APV-resistant HIV1 selected after 4 passages to EC50 for antiviral activity against wild-type HIV1 3B; type: functional
[7] = test system: Human immunodeficiency virus 1; experiment: Selectivity ratio of EC50 for antiviral activity against HIV1 harboring E92V mutation in catalytic core domain of integrase to EC50 for antiviral activity against wild-type HIV1 3B; type: functional
[8] = test system: Human immunodeficiency virus 1; experiment: Antiviral activity against HIV1 3B infected in human MT-2 cells by two fold dilution method in presence of 10% FBS, HSA and alpha1-AGP; type: functional, organism-based; conditions: Human immunodeficiency virus 1, 3B, MT2
[9] = Selectivity index, ratio of CC50 for human T lymphocyte cells to EC50 for HIV1 BAL in presence of 10% FBS; type: toxicity, cell-based
[10] = test system: Human immunodeficiency virus 1; experiment: Selectivity ratio of EC50 for antiviral activity against GS-9160-resistant HIV1 selected after 8 passages to EC50 for antiviral activity against wild-type HIV1 3B; type: functional
[11] = test system: Human immunodeficiency virus 1; experiment: Selectivity ratio of EC50 for antiviral activity against HIV1 harboring G140S and Q148H mutation in catalytic core domain of integrase to EC50 for antiviral activity against wild-type HIV1 3B; type: functional
[12] = test system: Human immunodeficiency virus 1; experiment: Antiviral activity against HIV1 3B infected in human MT-4 cells by two fold dilution method in presence of 10% FBS; type: functional, organism-based; conditions: Human immunodeficiency virus 1, 3B, MT4

| SMILES | Ratio EC50 [1] | Ratio EC50 [2] | selectivity ratio (in vitro) | EC50 [3] [µM] | CC50 [4] [µM] | Ratio EC50 [5] | Ratio EC50 [6] | Ratio EC50 [7] | EC50 [8] [µM] | selectivity ratio [9] | Ratio EC50 [10] | Ratio EC50 [11] | EC50 [12] [µM] |
| --- | --- | --- | --- | --- | --- | --- | --- | --- | --- | --- | --- | --- | --- |
| O=C(NCc1ccc(F)cc1)c1nc(N2CCCCS2(=O)=O)c2cccnc2c1O | 42 | 39 | 400 | 0.06 | 1.6 | 1.3 | 1.9 | 8 | 0.043 | 700 | 65 | 478 | – |
| CN(c1c2c(c(O)c3ncccc13)C(=O)N(Cc1ccc(F)cc1)C2)S(C)(=O)=O | 32 | 67 | 457 | 0.015 | 0.32 | 0.6 | 1.6 | 12 | 0.015 | 2670 | 60 | 1132 | 0.0007 |

From ChEMBL document CHEMBL1629647, “Preclinical evaluation of GS-9160, a novel inhibitor of human immunodeficiency virus type 1 integrase” (Antimicrob Agents Chemother, 2009)
